The term inhibition denotes the drop in the measured response relative to a control, in per cent.

Consider four compounds from US7473790B2 (Pfizer Inc., priority 2003, dated 2009).

T1 sequence (P26663 2420-3010): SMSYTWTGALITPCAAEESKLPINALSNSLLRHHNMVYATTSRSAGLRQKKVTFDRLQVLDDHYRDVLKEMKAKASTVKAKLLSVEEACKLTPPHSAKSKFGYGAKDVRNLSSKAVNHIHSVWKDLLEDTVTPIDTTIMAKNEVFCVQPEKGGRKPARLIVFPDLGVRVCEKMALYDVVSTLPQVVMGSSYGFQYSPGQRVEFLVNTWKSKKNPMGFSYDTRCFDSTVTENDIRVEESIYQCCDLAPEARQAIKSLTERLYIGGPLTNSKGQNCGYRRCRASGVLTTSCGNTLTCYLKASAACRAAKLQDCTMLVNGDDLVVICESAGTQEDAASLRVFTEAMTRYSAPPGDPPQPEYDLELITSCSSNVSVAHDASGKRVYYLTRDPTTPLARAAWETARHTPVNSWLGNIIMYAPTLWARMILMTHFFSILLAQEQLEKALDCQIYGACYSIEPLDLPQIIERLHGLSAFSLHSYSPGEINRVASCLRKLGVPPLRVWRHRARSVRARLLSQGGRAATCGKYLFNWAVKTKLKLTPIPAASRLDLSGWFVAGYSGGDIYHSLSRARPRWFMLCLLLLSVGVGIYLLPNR

The assay concerns the target T1, HCV polymerase (Hepatitis C virus genotype 1b, UniProt P26663).
T1 construct: 2.5 pmoles (0.15 μg) HCV polymerase protein in a final volume of 75 μL
Put plainly: HCV polymerase primer/template-directed transcription assay (32P-GTP incorporation, filter binding). The class given is biochemical. To be noted: @ 50 uM compound; given where IC50 was impractical to calculate; read-out: percent inhibition. The procedure, abridged: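 Recombinant genotype 1b polymerase (30 nM) extended biotin-dG12 primer on poly(rC)300 template with 1 μM GTP plus α-32P-GTP, pH 7.2, 10 mM MgCl2, 30 min at 30° C, 1% DMSO final. Products captured on DE filters and counted. IC50 fitted from triplicate cpm, with a tight-binding correction applied below 200 nM.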
`O=C1CC(=O)OC(CSc2ncccn2)(C2CCCC2)C1` (stereo not shown) [I(1), 6-cyclopentyl-6-[(pyrimidin-2-ylthio)methyl]dihydro-2H-pyran-2,4(3H)-dione]: the inhibition at 50 µM was 27%.

Turning to `O=C1CC(=O)OC(CSCc2ccco2)(C2CCCC2)C1` (stereo not shown) [I(2), 6-cyclopentyl-6-{[(2-furylmethyl)thio]methyl}dihydro-2H-pyran-2,4(3H)-dione], the inhibition at 50 µM was 22%.

With `CCOc1ccc2nc(SCC3(C4CCCC4)CC(=O)CC(=O)O3)sc2c1` (stereo not shown) [I(3), 6-cyclopentyl-6-{[(6-ethoxy-1,3-benzothiazol-2-yl)thio]methyl}dihydro-2H-pyran-2,4(3H)-dione], the inhibition at 50 µM is -2%. `CC(C)c1ccc(SCC2(C3CCCC3)CC(=O)CC(=O)O2)cc1` (stereo not shown) [I(4), 6-cyclopentyl-6-{[(4-isopropylphenyl)thio]methyl}dihydro-2H-pyran-2,4(3H)-dione]: the inhibition at 50 µM was 44%.
